Series [1] can be described thus: Stability in water. The format is physicochemical. The text has this: 3-(trimethoxysilyl) propyldimethyloctadecyl ammonium chloride (hereinafter also referred to as “Trimethoxy”) 104, is illustrated in FIG. 2 only as a precursor to the Trihydroxy molecule, when hydrolyzed by addition to water, shown in FIG. 1. […] Conventional methods of use of Trimethoxy 104 includes addition of a dilute solution in methanol to water. The EPA label required for Trimethoxy compounds states: “Danger. Corrosive. Causes irreversible eye damage and skin burns. Methanol may cause blindness. May be fatal if inhaled. May be harmful if swallowed or absorbed through the skin.”
The compound must then be used within a short period of time, such as a few hours to at most 12 hours, to treat a surface or fabric to produce a permanent surface coating.

Series [2] relates to mixed bacterial/fungal infectious otitis externa and infectious dermatitis. In words: Example 1: treatment of otitis externa and dermatitis in a Shih Tzu dog. It counts as in vivo. Conditions: oral, four weeks, before treatment with the composition.
Excerpt: Conner's chest, neck, paws, and face were cleaned and treated twice daily with antimicrobial wipes (Douxo Chlorhexiding pads®) and an antimicrobial lotion (ResiKetoChlor®). The ears were cleaned once daily with a tris-EDTA/ketoconazole solution (TrizUltra plus Keto®) and treated twice daily with an amikacin otic preparation.
The animal had generalized mixed hypotrichosis/alopecia, erythema, hyperpigmentation, and lichenification with crusting over dorsal trunk, legs, paws, and ventrum. Hair on the face and neck was severely matted. The skin underlying the mats was crusted, with moist dermatitis and brown purulent exudate. Lymph node enlargement was palpated in the mandibular, prescapular, and popliteal node groups.
A generalized severe Malassezia (yeast) dermatitis was concentrated mostly on ventrum and paws. […] Fine-needle aspirates of peripheral lymph nodes (left prescapular and left popliteal) were consistent with reactive lymphadenopathy.
The otitis externa was treated initially by cleaning the ears with a salicylic acid based ear cleaner (Otoclean®) and instillation of 0.5 ml of the disclosed composition comprising Trihydroxy in each ear. Mats were removed and the dog was bathed and groomed over two days using (Splash plus® shampoo), followed by antimicrobial shampoo (Douxo Chlorhexidine® shampoo), followed by essential fatty acid cream rinse (Hylyt® cream rinse). […]

`CCCCCCCCCCCCCCCCCC[N+](C)(C)CCC[Si](O)(O)O.[Cl-]` [Trihydroxy, 3-(trihydroxysilyl) propyldimethyloctadecyl ammonium chloride]: the stability in water entry in series [1] is listed as “stable with no other additives in water”.

As to `CCCCCCCCCCCCCCCCCC[N+](C)(C)CCC[Si](OC)(OC)OC.[Cl-]` [Trimethoxy, 3-(trimethoxysilyl) propyldimethyloctadecyl ammonium chloride], the stability in water entry in series [1] was “unstable in water”.

`OC(Cn1cncn1)(Cn1cncn1)c1ccc(F)cc1F` [fluconazole]: in series [2], the “outcome of earlier conventional therapy” value was “failed”.

Take amoxicillin/clavulanate: the “outcome of earlier conventional therapy” value in series [2] was “failed”.

(Values after patent US20170042916A1, “ANIMAL TISSUE COLONIZATION AND TREATMENT OF INFECTION” (priority 2014, published 2017).)
